Laboratory results: article PMC7956971, “Fluorometric Liposome Screen for Inhibitors of a Physiologically Important Bacterial Ion Channel” (Frontiers in Microbiology, 2021)
Where two headings read alike, the source gives them in different places.

How the values were obtained:
KtrB = molecular target: T1, KtrB (Bacillus subtilis, UniProt O32081); assay: ACMA fluorescence K+ efflux assay in proteoliposomes, 96-well, Hill fit of final fluorescence; assay type: biochemical
T1 construct: purified membrane subunit KtrB alone (no KtrA), reconstituted in liposomes; dimer

KtrAB [1] = molecular target: T2, KtrAB (Bacillus subtilis, UniProt O32081); assay: as above; assay type: biochemical
T2 construct: gene ktrB; purified complex of dimeric membrane protein KtrB and octameric cytoplasmic KtrA ring, reconstituted in liposomes; with Ktr system potassium uptake protein A
Description: ACMA fluorescence K+ efflux assay in proteoliposomes, 96-well, Hill fit of final fluorescence on KtrAB

KtrAB [2] = molecular target: T3, KtrAB (Bacillus subtilis, UniProt O32081, R417K); assay: ACMA fluorescence K+ efflux assay in proteoliposomes, single concentration; assay type: biochemical; conditions: ATP form; also tested in the ADP form
T3 construct: gene ktrB; purified complex of dimeric membrane protein KtrB and octameric cytoplasmic KtrA ring, reconstituted in liposomes; with Ktr system potassium uptake protein A

NaKΔN19/F92A = molecular target: T4, NaKΔN19/F92A (Bacillus cereus, UniProt Q81HW2, F92A); conditions: read-out: KI; no nucleotide; pH 8.0; KI defined as constant of 50% inhibition
T4 construct: gene BC_0669
T4 sequence (Q81HW2 19-110 F92A): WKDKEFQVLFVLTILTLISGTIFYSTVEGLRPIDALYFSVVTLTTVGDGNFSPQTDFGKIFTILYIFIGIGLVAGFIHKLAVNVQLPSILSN

T2 sequence (O32081 whole entry): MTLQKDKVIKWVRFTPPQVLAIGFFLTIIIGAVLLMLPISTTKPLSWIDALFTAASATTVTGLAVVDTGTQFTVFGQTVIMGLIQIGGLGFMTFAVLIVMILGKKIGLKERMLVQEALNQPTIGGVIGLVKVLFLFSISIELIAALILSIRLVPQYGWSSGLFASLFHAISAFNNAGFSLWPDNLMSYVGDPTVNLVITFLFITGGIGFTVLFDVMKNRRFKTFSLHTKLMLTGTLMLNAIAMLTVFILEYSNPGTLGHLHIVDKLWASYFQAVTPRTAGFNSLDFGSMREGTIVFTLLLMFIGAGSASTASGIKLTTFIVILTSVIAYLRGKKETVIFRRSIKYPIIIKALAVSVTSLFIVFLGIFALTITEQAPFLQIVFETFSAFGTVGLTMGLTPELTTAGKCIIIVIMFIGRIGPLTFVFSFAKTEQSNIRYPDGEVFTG
T2 sequence (O32080 whole entry, further chain): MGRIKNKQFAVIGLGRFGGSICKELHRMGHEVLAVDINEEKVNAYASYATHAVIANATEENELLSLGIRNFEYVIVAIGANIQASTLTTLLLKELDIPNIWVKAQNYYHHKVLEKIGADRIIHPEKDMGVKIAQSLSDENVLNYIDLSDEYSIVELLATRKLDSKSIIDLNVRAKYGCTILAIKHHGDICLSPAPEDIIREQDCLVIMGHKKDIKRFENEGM
T1 sequence (O32081 whole entry): as the sequence (O32081 whole entry) above
T3 sequence (O32080 whole entry): as the sequence (O32080 whole entry, further chain) above
T3 sequence (O32081 whole entry R417K): as the sequence (O32081 whole entry) above, with R417K counted along it

| Structure (SMILES) | IC50 (KtrAB [1]; read-out: KI) [µM] | also measured |
| --- | --- | --- |
| O=C(Nc1ccc(Cl)cc1)Nc1cccc(C(F)(F)F)c1 [compound 36, compound #36] |  | IC50 (KtrB; no nucleotide, KtrB alone, pH 8.0, KI defined as constant of 50% inhibition, read-out: KI): 0.5 µM; IC50 (KtrAB [1]; 0.1 mM ATP (active state), 0.5 mM MgCl2, pH 8.0, KI defined as constant of 50% inhibition, read-out: KI): 8 µM; % inhibition at 6 μM (KtrAB [2]): all tested compounds showed inhibition with both the active and inactive forms of KtrABR417K |
| CCN(CC)CCn1c(=N)n(CC(=O)C23CC4CC(CC(C4)C2)C3)c2ccccc21 [compound 21, compound #21] | 0.8 |  |
| CC1CCCC(C)N1CC(O)COc1ccc(Cl)cc1 (centres unmarked) [compound 41, compound #41] | 3 |  |
| Cc1cc(C)c(OCC(O)CNC(C)(C)CC(C)(C)C)c(C)c1 (centres unmarked) [compound 1, compound #1] | 2 | IC50 (NaKΔN19/F92A): 14 µM |
| CCCN1CCC(N(CCc2ccccc2)Cc2ccccc2)CC1 [compound 31, compound #31] | 1 |  |
| COc1ccc(Br)cc1CNCCc1cccc(F)c1 [compound 39, compound #39] |  | IC50 (KtrB): 3.8 µM; IC50 (KtrAB [1]): 4 µM |
| COc1ccc(CN2CCN(c3cccc(C)c3C)CC2)c(OC)c1 [compound 6, compound #6] | 1 | IC50 (NaKΔN19/F92A): 16 µM |
| OC(CN1CCCCCC1)CN(c1ccccc1)c1ccccc1 (centres unmarked) [compound 3, compound #3] | 2 |  |
| Cc1cc(C)c(C)c(OCCCCN2CCCCC2)c1 [compound 25, compound #25] | 2 |  |
